Data published in US20160137746A1, “METHODS FOR TREATING HIGH CARDIOVASCULAR RISK PATIENTS WITH HYPERCHOLESTEROLEMIA” (Sanofi Biotechnology, priority 2014, published 2016).
“And” between values parts separate entries of the source, which are not always exact repeats. Identical values can stand only once.

What was measured:
Type in all cases: in vivo, human
[1] = tested on: high cardiovascular risk patients with hypercholesterolemia; assay: ODYSSEY COMBO I: antibodies to alirocumab
From the text: In seven of these patients, the antibodies were transient and resolved despite continued alirocumab treatment.

[2] = tested on: high cardiovascular risk patients with hypercholesterolemia; assay: ODYSSEY COMBO II: lipid efficacy of alirocumab vs ezetimibe, add-on to maximally tolerated statin; details: for Calculated LDL-C percent change from baseline, LS mean (SE): ITT population, MMRM, alirocumab 75 Q2W/Up150 Q2W, ezetimibe 10
From the text: Each of the COMBO studies was randomized, double-blinded, and placebo-controlled.
The primary efficacy endpoint for each study was the difference between treatment arms in the percent change in LDL-C from baseline to Week 24.
Apo, apolipoprotein; HDL-C, high-density lipoprotein cholesterol; ITT, intent-to-treat; LDL-C, low-density lipoprotein cholesterol; Lp(a), lipoprotein (a); TG, triglycerides.
COMBO II was a Phase 3, randomized, double-blind, active-controlled, parallel-group, multinational 104-week study. The study enrolled high-risk patients with uncontrolled hypercholesterolemia on stable, maximally tolerated daily statin therapy. Unlike COMBO I, with a placebo arm, COMBO II incorporated an active-treatment arm (ezetimibe) with double-dummy design (FIG. 1B) and patients were not allowed to receive any other lipid lowering therapies besides statin and their randomized treatment.
After randomization, patients entered a double-blind, double-dummy treatment period of 104 weeks.
Primary analyses of efficacy endpoints were conducted using an ITT approach (based on the ITT population defined above), including all lipid data, regardless of whether the patient was continuing therapy or not. This corresponds to ITT estimands, defined for primary and key secondary endpoints. In addition, analyses were also conducted using an on-treatment approach (based on the mITT population defined above), including lipid data collected during the efficacy treatment period. This corresponds to on-treatment estimands of key secondary endpoints.
With regards to the primary efficacy analysis (ITT approach), the percent change in calculated LDL-C from baseline to Week 24 was analyzed using a mixed-effect model with repeated measures (MMRM) approach.

[3] = tested on: high cardiovascular risk patients with hypercholesterolemia; assay: ODYSSEY LONG TERM: ophthalmologic sub-study; details: including the ophthalmological sub-study
From the text: Patients underwent ophthalmologic assessments by ophthalmologists/optometrists at the screening period. If the patients were deemed eligible for the main study trial and fulfilled the additional eligibility criteria for the sub-study, then the patients underwent ophthalmologic assessments every 6 months during the 18-month double-blind treatment period
The primary endpoint was adverse events related to ophthalmologic abnormalities (using SMQ “optic nerve disorders”, “retinal disorders” and “corneal disorders”) over the study duration.

[4] = tested on: high cardiovascular risk patients with hypercholesterolemia; assay: ODYSSEY LONG TERM: lipid efficacy of alirocumab 150 mg Q2W vs placebo; details: intention-to-treat, Week 78 (final analysis)
[5] = ITT, Week 24, listed as alirocumab

Substance: Alirocumab: human anti-PCSK9 antibody; HCVR SEQ ID NO:1, LCVR SEQ ID NO:6; CDRs SEQ ID NOs 2/3/4/7/8/10
- Effect of anti-alirocumab antibodies on safety and efficacy ([1]; in vivo): no observed effect on safety and efficacy
- Median time to detection of antibodies to alirocumab ([1]; in vivo): 12 weeks
- Antibodies to alirocumab detected at baseline ([1]; patients subsequently randomized to alirocumab (3/197)): 1.5%
- Anti-alirocumab antibody titer ([1]; treatment-emergent positive patients): ≤ 240
- Achieved LDL-C, median ([2]; 24 weeks, FIG. 7): 40 mg/dL
- Patients with automatic up-titration at Week 12 from 75 mg Q2W to 150 mg Q2W (Week 8 LDL-C ≧70 mg/dL) ([2]; 82 of 446 patients with at least one injection after Week 12): 18.4% and 18%
- Calculated LDL-C percent change, LS mean difference (SE) vs ezetimibe ([2]; ITT, Week 24): −29.8 (2.3) %
- Calculated LDL-C, LS mean (SE) percent change from baseline ([2]; ITT, Week 24): −50.6 (1.4) %
- Fasting TGs, LS mean percent change from baseline ([2]; ITT, Week 24): −13.0%
- Calculated LDL-C percent change, LS mean difference (SE) vs ezetimibe [2, 5]: −29.8%
- Calculated LDL-C, LS mean (SE) percent change from baseline [2, 5]: −50.6%
- Fasting TGs percent change, LS mean difference vs ezetimibe ([2]; ITT, Week 24, p=0.9117): −0.3%
- Calculated LDL-C, LS mean percent change from baseline ([2]; ITT, Week 52, listed as alirocumab): −49.5% and −50%
- Apolipoprotein A-1, LS mean difference vs. ezetimibe ([2]; ITT, time point not given): vs. ezetimibe of 6.3%
- Apolipoprotein A-1, LS mean vs. baseline ([2]; ITT, time point not given): vs. baseline of +5.0
- Calculated LDL-C percent change, LS mean difference vs ezetimibe ([2]; On-treatment, Week 24): −30.6%
- Calculated LDL-C percent change from baseline, LS mean (SE) ([2]; Week 4): −54.7 (1.1) %
- Calculated LDL-C percent change from baseline, LS mean (SE) ([2]; Week 8): −54.3 (1.2) %
- Apo-B - Percent change from baseline to Week 12, LS mean difference vs. ezetimibe ([2]; Week 12, ITT): vs. ezetimibe of −22.5%
- Apo-B - Percent change from baseline to Week 12, LS mean vs. baseline ([2]; Week 12, ITT): vs. baseline of −39.7
- Calculated LDL-C - Percent change from baseline to Week 12, LS mean difference vs. ezetimibe ([2]; Week 12, ITT): vs. ezetimibe of −29.4%
- Non-HDL-C - Percent change from baseline to Week 12, LS mean difference vs. ezetimibe ([2]; Week 12, ITT): vs. ezetimibe of −22%
- Non-HDL-C - Percent change from baseline to Week 12, LS mean vs. baseline ([2]; Week 12, ITT): vs. baseline of −42.6
- Total-C - Percent change from baseline to Week 12, LS mean difference vs. ezetimibe ([2]; Week 12, ITT): vs. ezetimibe of −14.3%
- Total-C - Percent change from baseline to Week 12, LS mean vs. baseline ([2]; Week 12, ITT): vs. baseline of −29.4
- Calculated LDL-C - Percent change from baseline to Week 12, LS mean difference vs. ezetimibe ([2]; Week 12, On-treatment analysis): vs. ezetimibe of −29.7%
- Calculated LDL-C percent change from baseline, LS mean (SE) ([2]; Week 16): −56.4 (1.3) %
- Apo B reduction compared with ezetimibe ([2]; Week 24): 22.4%
- Fasting TGs reduced from baseline ([2]; Week 24): 13.5%
- HDL-C increase compared with ezetimibe ([2]; Week 24): 8.1%
- Lp(a) reduction compared with ezetimibe ([2]; Week 24): 21.7%
- Mean achieved LDL-C ([2]; Week 24): 51.6 (1.4) mg/dL
- Non-HDL-C reduction compared with ezetimibe ([2]; Week 24): 22.9%
- Apo-B - Percent change from baseline to Week 24, LS mean vs. baseline ([2]; Week 24, ITT): vs. baseline of −40.7
- HDL-C - Percent change from baseline to Week 24, LS mean difference vs. ezetimibe ([2]; Week 24, ITT): vs. ezetimibe of 8.1%
- HDL-C - Percent change from baseline to Week 24, LS mean vs. baseline ([2]; Week 24, ITT): vs. baseline of- +8.6
- Lp(a) - Percent change from baseline to Week 24, combined estimate for adjusted mean difference vs. ezetimibe ([2]; Week 24, ITT): ezetimibe of −21.7%
- Lp(a) - Percent change from baseline to Week 24, mean vs. baseline ([2]; Week 24, ITT): vs. baseline of −27.8
- Non-HDL-C - Percent change from baseline to Week 24, LS mean difference vs. ezetimibe ([2]; Week 24, ITT): vs. ezetimibe of−22.9%
- Non-HDL-C - Percent change from baseline to Week 24, LS mean vs. baseline ([2]; Week 24, ITT): vs. baseline of −42.1
- Total-C - Percent change from baseline to Week 24, LS mean difference vs. ezetimibe ([2]; Week 24, ITT): vs. ezetimibe of −14.7%
- Calculated LDL-C percent change from baseline, LS mean (SE) ([2]; Week 24): −50.6 (1.4) %
- Fasting TGs - Percent change from baseline to Week 24, combined estimate for adjusted mean difference vs. ezetimibe ([2]; Week 24, ITT, not statistically significant (p 0.9117)): ezetimibe of −0.3%
- HDL-C percent change from baseline to week 24 ([2]; Week 24, on-treatment analysis): 9.0 (0.8)
- HDL-C percent change from baseline to week 24, LS mean difference (SE) alirocumab vs ezetimibe ([2]; Week 24, on-treatment analysis): 8.2 (1.4) %
- Lipoprotein(a) percent change from baseline to week 24 ([2]; Week 24, on-treatment analysis): −28.1 (1.4)
- Lipoprotein(a) percent change from baseline to week 24, LS mean difference (SE) alirocumab vs ezetimibe ([2]; Week 24, on-treatment analysis): −22.5 (2.4) %
- Total cholesterol percent change from baseline to week 24 ([2]; Week 24, on-treatment analysis): −30.4 (0.9)
- Total cholesterol percent change from baseline to week 24, LS mean difference (SE) alirocumab vs ezetimibe ([2]; Week 24, on-treatment analysis): −15.1 (1.5) %
- Triglycerides (fasted) percent change from baseline to week 24 ([2]; Week 24, on-treatment analysis): −13.5 (1.4)
- Triglycerides (fasted) percent change from baseline to week 24, LS mean difference (SE) alirocumab vs ezetimibe ([2]; Week 24, on-treatment analysis): −0.2 (2.5) %
- Calculated LDL-C percent change from baseline, LS mean (SE) ([2]; Week 36): −51.2 (1.4) %
- Calculated LDL-C - Percent change from baseline to Week 52, LS mean difference vs. ezetimibe ([2]; Week 52, ITT): vs. ezetimibe of −31.2%
- Absolute reduction in LDL-C ([2]; by week 24, dose-increased group): 63.5 mg/dL
- Absolute reduction in LDL-C ([2]; by week 24, remainder of the alirocumab group): 56.9 mg/dL
- Patients who did not require uptitration to alirocumab 150 mg Q2W ([2]; in vivo): approximately 80%
- Additional LDL-C reduction after dose increase at 12 weeks ([2]; patients with dose increased to 150 mg SC Q2W): 12.4%
- TEAEs related to ophthalmological events [3]: no particular signal was detected
- Percent decrease in LDL cholesterol [4]: 52%
